Where no end group is shown, it is not given here.
Columns and labels:
Assay type in all cases: cell-based
[1] = tested on: thymulin; assay: Thymulin staining of GH-treated hair follicles
[2] = tested on: human anagen VI hair follicles; assay: Hair shaft elongation of organ-cultured hair follicles, assay #1 (culture HF 429)
Description: (§1) Human anagen VI hair follicles were isolated from scalp skin obtained from three different individuals undergoing routine face-lift surgery. All experiments were performed according to Helsinki guidelines.
(§2) Hair follicles were isolated as described (Philpott MP et al, Human hair growth in vitro; J Cell Science 1990, 97(Pt 3):463-71). Isolated HFs were maintained in supplemented, serum-free Williams E medium (Biochrom, Cambridge, UK) supplemented with 2 mMol/L L-glutamine (Invitrogen, Paisley, UK), 10 ng/mL hydrocortisone (Sigma-Aldrich, Taufkirchen, Germany), 10 μg/mL insulin (Sigma-Aldrich), and 1% antibiotic/antimycotic mixture (Gibco, Karlsruhe, Germany). Hair follicles were placed in a 24-well plate with 500 μL medium (day 0) and incubated in a CO2-incubator (5% CO2, 37° C.) over night without any treatment. The next day (day 1) medium was exchanged and test substance was added to each well (5 μL of stock solution was added to 495 μL culture medium). The medium or medium with test substance was changed every 48 hours.
(§3) Assay #1 Culture HF429: Hair follicles were grown in the wells of a microtiter plate (3 follicles per well) and treated for 9 days with culture medium and test substance as indicated in FIG. 1. Thereafter, elongation, melanogenesis and hair cycle stage were determined.
(§4) Hair shaft length measurements were performed every second day on individual hair follicles using a binocular microscope with an eyepiece measuring reticule. The length of the follicle was defined as the distance between the base of the bulb and the cut end of the hair fibre (Philpott MP et al, Human hair growth in vitro; J Cell Science 1990, 97(Pt 3):463-71).
(§5) All data were analysed by two-tailed unpaired t-test (SPSS analysis software SPSS Inc., Chicago, USA). For determination of elongation, two outliers at top and bottom end of value range were eliminated; with the measurement of melanogenesis one outlier at both, top and bottom range, was eliminated. Results are given as mean value and standard error of measurement (SEM).

[3] = tested on: human anagen hair follicles; assay: Ki67/TUNEL staining, percentage of proliferating cells, assay #3; conditions: for Mean percentage of Ki67-positive cells: after 9 days of culture, Anagen only; for Percentage of proliferating cells compared to the control (in words): nine days, p<0.05
Description: (§6) Assay #3 Culture HF 446: Eight hair follicle cultures (3 follicles/well) were treated with various concentration of test substance as described for 2 days, followed by snap freezing and sectioning of two wells. Six wells were treated up to 9 days, then snap frozen and sectioned. The distribution of test substances and concentrations were as indicted in FIG. 3. The parameter measured after two days was proliferation/apoptosis, and the parameters measured after 9 days were elongation, proportion of cells in proliferation/apoptosis, and hair cycle stage
After nine days, Ki67/TUNEL staining was performed and photos taken.
Proliferating and resting cells as well as cells undergoing apoptosis were counted separately proximal Auber's line. Results are expressed as percentages. For Ki-67/TUNEL staining, fixed sections were incubated for 60 minutes in a solution comprising 30% TdT-enzyme (Chemicon International, Inc., Temecula, Calif., USA; CatNo S1707). 2 mL stop buffer (Chemicon International, Inc.; CatNo S7110), diluted in 68 mL distilled water, was added for 10 minutes to stop the reaction. This was followed by a pre-incubation for 20 minutes with 10% goat serum (Dako Cytomation, CatNo 50114121) and incubation with mouse-anti human Ki-67 antigen (Chemicon International, Inc., CatNo S7110) 1:20 in PBS with 2% goat serum. The fixed section was then washed in PBS, treated with anti-digoxigenin antibody (Chemicon International, Inc., CatNo S7110) (59DI Antibody solution and 5601 Stop solution, 30 minutes) and goat anti-mouse-IgG-rhodamine red (Jackson Immuno Research, Suffolk, UK; CatNo 115-295-062), 1:200 in PBS with 2% goat serum. After washes with PBS, counterstaining with DAPI™ ([…]) (Roche, Basel, Switzerland; CatNo 236276) and further washes with PBS and mounting using Fluoromount (Southern Biotech, Birmingham, Ala., USA; CatNo 0100-01).
After nine days, Ki67/TUNEL staining was performed and photos were taken. In anagen hair follicles, proliferating cells and cells undergoing apoptosis were counted separately proximal Auber's line. Results are expressed as percentages. […] The results are summarized in Table 6 and FIG. 9 showing the mean percentage of Ki6 7 positive cells with SEM

[4] = tested on: human hair follicles; assay: Hair cycle staging of cultured hair follicles (assays #1, #2, #3); conditions: after 9 days of treatment, both tested individuals, all concentrations
Description: (§7) Photodocuments from the Fontana Masson staining were used for hair follicle staging according to previously well-defined morphological criteria (Stenn K S et al, Controls of Hair Follicle Cycling; Physiol Rev 2001, 81:449-494, Müller-Röver S et al, A Comprehensive Guide for the Accurate Classification of Murine Hair Follicles in Distinct Hair Cycle Stages; J Invest Dermatol 2001, 117:3-15). The percentage of hair follicles in anagen, early, mid and late catagen was determined.
as §7, with “determined in the different assays.” for “determined.”

[5] = tested on: human anagen VI hair follicles; assay: Hair shaft elongation of organ-cultured hair follicles, assay #3 (culture HF 446); conditions: for Rate of hair growth compared with control (in words): p<0.05
Description: as §1, §2, §6, §4, §5

[6] = tested on: human anagen VI hair follicles; assay: Melanogenesis, Fontana Masson staining measured by Image J, assay #1; conditions: for Mean relative darkening of the groups (measured by image J), Mean: 9 days, dark=small index number, light=high index number
Description: as §3
Fontana Masson staining was performed at the end of the culture period and photos taken of snap frozen sections. The photos were analysed (Image J, public domain, developed at the National Institutes of Health, USA) by measuring the density of two squares, consisting of 150×150 dots, placed over the darkest areas on both sides of the dermal papilla. For Fontana-Masson staining, fixed sections were treated in darkness for 40 minutes with a solution containing 10% silver nitrate (Merck & Co., Inc., Whitehouse Station, N.J., USA; CatNo 1.01512.0100), following by a development in solution containing 5% sodium thiosulphate (Merck & Co., Inc.; CatNo 1.06512.2500) for 1 minute and multiple washings in distilled water for 3 minutes. Counterstaining with 0.5% Neutralrot (Chroma Muenster, Germany, CatNo 2E038). Then dehydration in xylol and covering with Eukitt (O. Kindler GmbH, Freiburg, Germany; CatNo E115).
as §5
Micro-dissected anagen VI hair follicles were treated as above described. At the end of the culture period Fontana Masson staining was performed and photos were taken of the snap frozen sections. The pictures were analysed by measuring the darkness (brightness) of two squares, consisting of 150×150 dots, placed over the darkest areas on both sides of the dermal papilla (dark=small index number, light=high index number). The shading of the different groups was compared to each other and the results were analysed using Student's t-test. The results are shown below in Table 5 and FIG. 7.

With “GH: GH, pituitary hormone that stimulates the secretion of thymulin” the “Staining for thymulin compared with the control group (in words)” value [1] was “stained more intensively for thymulin”.
“Thymosin alpha-1 (SDAAVDTSSEITTKDLKEKKEVVEEAEN; ends and bridges not checked; UniProt P06454 2-29, looked up) [TA1, 28aa thymic peptide which modulates lymphocyte differentiation]” was tested, and the “Mean elongation in percent compared to day 0” value (“Mean elongation in percent” below) ([2]; 100 ng/mL, Day 0) was 0.00%, the “Mean elongation in percent” value ([2]; 100 ng/mL, Day 1) was 16.71% and the “Mean elongation in percent” value ([2]; 100 ng/mL, Day 3) was 34.54%. For the same substance, the “Mean elongation in percent” value ([2]; 100 ng/mL, Day 5) was 51.14%, the “Mean elongation in percent” value ([2]; 100 ng/mL, Day 7) was 70.11% and the “Mean elongation in percent” value ([2]; 100 ng/mL, Day 9) was 82.55%. The “Mean elongation in percent” value ([2]; 1000 ng/mL, Day 0) was 0.00%, the “Mean elongation in percent” value ([2]; 1000 ng/mL, Day 1) was 15.41% and the “Mean elongation in percent” value ([2]; 1000 ng/mL, Day 3) was 34.74%. The “Mean elongation in percent” value ([2]; 1000 ng/mL, Day 5) was 50.66%, the “Mean elongation in percent” value ([2]; 1000 ng/mL, Day 7) was 66.20% and the “Mean elongation in percent” value ([2]; 1000 ng/mL, Day 9) was 75.26%. For the same substance, the “Mean percentage of Ki67-positive cells” value ([3]; 100 ng/mL) was 25.15 percentage, the “Percentage of proliferating cells compared to the control (in words)” value ([3]; 100 ng/mL) was “less percentage of cells are proliferating” and the “Mean percentage of Ki67-positive cells” value ([3]; 1000 ng/mL) was 28.05 percentage. For the same substance, the “Percentage of proliferating cells compared to the control (in words)” value ([3]; 1000 ng/mL) was “less percentage of cells are proliferating”, the “Hair follicles in anagen compared with control (in words)” value [4] was “more hair follicles in anagen” and the “Mean elongation in % compared to day 0” value ([5]; 100 ng/mL, Day 0) was 0%. For the same substance, the “Mean elongation in % compared to day 0” value ([5]; 100 ng/mL, Day 1) was 6.25%, the “Mean elongation in % compared to day 0” value ([5]; 100 ng/mL, Day 3) was 45.55% and the “Mean elongation in % compared to day 0” value ([5]; 100 ng/mL, Day 5) was 49.52%. For the same substance, the “Mean elongation in % compared to day 0” value ([5]; 100 ng/mL, Day 7) was 61.94%, the “Mean elongation in % compared to day 0” value ([5]; 100 ng/mL, Day 9) was 69.90% and the “Rate of hair growth compared with control (in words)” value ([5]; 100 ng/mL) was “significantly lowered rate of hair growth”. For the same substance, the “Mean elongation in % compared to day 0” value ([5]; 1000 ng/mL, Day 0) was 0%, the “Mean elongation in % compared to day 0” value ([5]; 1000 ng/mL, Day 1) was 4.00% and the “Mean elongation in % compared to day 0” value ([5]; 1000 ng/mL, Day 3) was 37.95%. For the same substance, the “Mean elongation in % compared to day 0” value ([5]; 1000 ng/mL, Day 5) was 51.77%, the “Mean elongation in % compared to day 0” value ([5]; 1000 ng/mL, Day 7) was 68.36% and the “Mean elongation in % compared to day 0” value ([5]; 1000 ng/mL, Day 9) was 73.33%. The “Rate of hair growth compared with control (in words)” value ([5]; 1000 ng/mL) was “significantly lowered rate of hair growth”, the “Mean relative darkening of the groups (measured by image J), Mean” value ([6]; 100 ng/mL) was 81.01 and the “Mean relative darkening of the groups (measured by image J), Mean” value ([6]; 1000 ng/mL) was 71.61. The “Influence on HF melanogenesis (in words)” value ([6]; quantitative Masson-Fontana histochemistry) was “did not influence HF melanogenesis”.

— patent US20110281802A1, “COMPOSITION FOR TREATMENT AND PREVENTION OF HAIR LOSS AND PREMATURE GRAYING OF HAIR” (Immudiagnostik AG, priority 2007, published 2011)
